Reference: patent publication US5223482A, “Recombinant Alzheimer's protease inhibitory amyloid protein and method of use” (Scios Nova Inc., priority 1989, dated 1993)
Where no end group is shown, it is not given here.

Tests used:
Assay type in all cases: biochemical
trypsin [1] = assay: Trypsin inhibition assay (hydrolysis of N-benzoyl-D-arginine-p-nitroaniline, release of pNA); conditions: HPLC peaks of the trypsin affinity column eluate
Procedure: All 8 oligonucleotides encoding either the phoA or ompA fusions were mixed together and treated with ligase. […] The ligated constructs were then ligated into the NdeI-HindIII sites of the vector pTRP233. The ligated vectors were transfected into E. coli strain MC1061 and Amp^R colonies selected. […] Miniprep DNA was used to transfect strains W3110 and JE5505. Small scale cultures of each of the three strains were grown and induced with IAA overnight. Culture supernatants were examined for trypsin inhibitory acitvity. Trypsin is assayed for its ability to hydrolyze the synthetic substrate N-benzoyl-D-arginine-p-nitroaniline to release p-nitroaniline (pNA). The release of pNA as a function of time is easily monitored in a spectrophotomer and can be quantitated to measure trypsin activity. The inhibitor is detected in this assay by virtue of its ability to bind to trypsin and prevent hydrolysis of the substrate by trypsin. Inhibitory activity wad detected in the culture medium for both ompA and phoA constructs in JE5505 but not W3110 or MC1601. Expression levels appeared to be higher with the phoA construct and so only this construct was used for subsequent experiments.

trypsin [2] = assay: Kinetics of inhibition (Ki) of the protease inhibitor for trypsin
Procedure: (§1) The analogs of the present protease inhibitors are constructed from oligonucleotides containing the specific codons encoding the desired amino acid at this location, using site-specific mutagenesis techniques as are known in the art. The desired activities of the analogs thus constructed are assayed using the appropriate enzyme, for example, either trypsin, chymotrypsin or elastase as the standard in one of the respective assays using, for example, the trypsin or chymotrypsin assays described in Tan, N. H. Biochem (1977) 16:1531-1541 and the elastase assays Barrett, A. J. (1981) in Methods in Enzymology vol. 80, L. Lorand ed., Academic Press, New York. The activity of the analogs may be compared with that of the natural protease inhibitor of the invention.

chymotrypsin = assay: Kinetics of inhibition (Ki) of the protease inhibitor for chymotrypsin
Procedure: as §1

## peak 4: major HPLC peak of the purified inhibitor; mass consistent with full length A4i with 3 disulfide bridges (EVCSEQAETGPCRAMISRWYFDVTEGKCAPFFYGGCGGNRNNFDTEEYCMAVCGSAM; disulfide (positions not given here); UniProt P05067 289-345, looked up, fragment)
Trypsin [1]
  activity in the trypsin inhibition assay: active

## natural protease inhibitor: 57 amino acid Kunitz-type protease inhibitor, residues 289 through 345 of the λAPCP168i4 β-amyloid-related protein (EVCSEQAETGPCRAMISRWYFDVTEGKCAPFFYGGCGGNRNNFDTEEYCMAVCGSAM; Kunitz inhibitor domain; UniProt P05067 289-345, looked up, fragment)
Trypsin [2]
  Ki: 3 nM
chymotrypsin
  Ki: 8.5 nM
